Assay results from ChEMBL document CHEMBL3098109, “The identification of AF38469: an orally bioavailable inhibitor of the VPS10P family sorting receptor Sortilin” (Bioorg Med Chem Lett, 2014).
In brackets after ≈: the same amount, converted by molar mass.

Tests used:
Sortilin (Homo sapiens) = Sortilin (Homo sapiens) (UniProt Q99523); test: Displacement of [3H]-neurotensin from sortilin (unknown origin) at 50 uM incubated 30 mins prior to [3H]-neurotensin addition measured after 6 hrs by scintillation proximity assay
[1] = Oral bioavailability in rat at 2 mg/kg; type: ADME, organism-based; conditions: in vivo
[2] = Volume of distribution at steady state in rat at 1 mg/kg, iv; type: ADME, organism-based; parameters: dose 1 mg/kg, route intravenous; conditions: in vivo, read-out: Vdss
[3] = Half life in rat at 1 mg/kg, iv; type: ADME, organism-based; parameters: dose 1 mg/kg, route intravenous; conditions: in vivo
[4] = Blood clearance in rat at 1 mg/kg, iv; type: ADME, organism-based; parameters: dose 1 mg/kg, route intravenous; conditions: whole blood
[5] = Cmax in rat at 2 mg/kg, po; type: ADME, organism-based; parameters: dose 2 mg/kg, route oral; conditions: in vivo
[6] = Intrinsic clearance in rat; type: ADME, organism-based; conditions: in vivo
[7] = Free plasma concentration in rat; type: ADME, cell-free
[8] = Solubility of the compound; type: physicochemical
Sortilin = molecular target: T1, Sortilin (Homo sapiens, UniProt Q99523)
T1 sequence (Q99523 whole entry): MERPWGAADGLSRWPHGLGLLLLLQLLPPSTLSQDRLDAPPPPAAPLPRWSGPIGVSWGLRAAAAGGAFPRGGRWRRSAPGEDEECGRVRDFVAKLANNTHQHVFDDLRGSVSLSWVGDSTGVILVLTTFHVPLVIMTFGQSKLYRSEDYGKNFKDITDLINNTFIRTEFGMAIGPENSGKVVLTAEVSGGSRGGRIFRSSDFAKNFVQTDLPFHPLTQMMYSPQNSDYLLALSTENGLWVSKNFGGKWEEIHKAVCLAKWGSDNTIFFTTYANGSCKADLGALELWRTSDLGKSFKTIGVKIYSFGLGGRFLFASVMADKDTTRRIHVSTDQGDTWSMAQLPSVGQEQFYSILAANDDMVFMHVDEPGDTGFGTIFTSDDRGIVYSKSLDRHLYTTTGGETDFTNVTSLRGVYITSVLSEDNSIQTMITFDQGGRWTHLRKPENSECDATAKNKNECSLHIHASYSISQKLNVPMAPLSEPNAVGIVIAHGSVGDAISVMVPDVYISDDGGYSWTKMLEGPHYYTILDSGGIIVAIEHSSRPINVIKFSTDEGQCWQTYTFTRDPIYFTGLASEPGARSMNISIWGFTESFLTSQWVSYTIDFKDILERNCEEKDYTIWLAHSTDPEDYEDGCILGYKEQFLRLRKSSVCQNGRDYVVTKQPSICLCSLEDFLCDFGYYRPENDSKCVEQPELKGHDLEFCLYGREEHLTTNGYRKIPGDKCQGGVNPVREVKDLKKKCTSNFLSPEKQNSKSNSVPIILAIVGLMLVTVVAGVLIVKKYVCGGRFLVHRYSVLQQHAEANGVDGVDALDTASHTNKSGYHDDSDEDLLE

Compound | inhibition (Sortilin (Homo sapiens)) [%] | further results
CCC(C)NC(=O)c1ccc(Br)cc1C(=O)O (stereo not given) | 30 | 
O=C(O)c1cc(Br)ccc1C(=O)Nc1ccccc1 | 69 | 
CC(C)NC(=O)c1ccc(Br)cc1C(=O)O | 35 | 
Cc1cccc(NC(=O)c2ccc(C(F)(F)F)cc2C(=O)O)n1 |  | bioavailability [1]: 35%; Vd [2]: 0.02 L/kg; half-life [3]: 1.2 h; clearance [4]: 0.03 L/h/kg; Cmax [5]: 12.8 µg/mL; CLint scaled [6]: 0.4 L/h/kg; fraction unbound [7]: 0.02; solubility [8]: 0.134 mg/mL (≈ 413 µM)
Cc1cccnc1NC(=O)c1ccc(Br)cc1C(=O)O | 64 | 
Cc1ccc(NC(=O)c2ccc(Br)cc2C(=O)O)cn1 | 70 | 
Cc1cc(=O)oc2c(CN[C@@H](CC(C)C)C(=O)O)c(O)ccc12 |  | IC50 (Sortilin): 4 µM
Cc1cccc(NC(=O)c2ccc(-c3ccccc3)cc2C(=O)O)n1 | 2 | 

Now from value to compound, other results behind:

inhibition (Sortilin (Homo sapiens)) [%] | Compound | further results
5 | Cc1cccc(NC(=O)c2cccc(C)c2C(=O)O)n1 | 
69 | Cc1cccc(NC(=O)c2cc(Cl)ccc2C(=O)O)n1 | 
57 | Cc1ccc(C(=O)O)c(C(=O)Nc2cccc(C)n2)c1 | 
43 | Cc1cccc(NC(=O)c2c(C)cccc2C(=O)O)n1 | 
15 | Cc1cccc(NC(=O)c2ccccc2C(=O)O)n1 | 
